These results are taken from ChEMBL document CHEMBL1126574, “Non-peptide angiotensin II receptor antagonists. 2. Design, synthesis, and biological activity of N-substituted (phenylamino)phenylacetic acids and acyl sulfonamides” (J Med Chem, 1993).

Some results are limits rather than exact numbers.

What is called IC50 is the concentration needed to halve the response being measured.

The target in assay [1] is T1, Type-2 angiotensin II receptor (Rattus norvegicus, UniProt P35351).
T1 sequence (P35351 whole entry): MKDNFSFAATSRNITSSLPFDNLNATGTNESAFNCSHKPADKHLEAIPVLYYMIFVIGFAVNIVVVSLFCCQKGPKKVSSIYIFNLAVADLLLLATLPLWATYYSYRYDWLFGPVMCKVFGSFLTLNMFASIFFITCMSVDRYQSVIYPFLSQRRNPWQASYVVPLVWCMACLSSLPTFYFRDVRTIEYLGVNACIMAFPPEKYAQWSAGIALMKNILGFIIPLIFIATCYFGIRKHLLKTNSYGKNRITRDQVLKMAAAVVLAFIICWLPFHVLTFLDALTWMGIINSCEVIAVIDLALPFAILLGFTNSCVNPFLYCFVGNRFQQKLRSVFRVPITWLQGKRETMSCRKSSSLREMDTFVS
Briefly: In vitro antagonist activity against angiotensin II type 2 (AT2) receptor in rat midbrain using [125I]- Sar, Ile AII. The format is functional.

Assay [2] has as its target T2, Type-1 angiotensin II receptor (Oryctolagus cuniculus, UniProt P34976).
T2 sequence (P34976 whole entry): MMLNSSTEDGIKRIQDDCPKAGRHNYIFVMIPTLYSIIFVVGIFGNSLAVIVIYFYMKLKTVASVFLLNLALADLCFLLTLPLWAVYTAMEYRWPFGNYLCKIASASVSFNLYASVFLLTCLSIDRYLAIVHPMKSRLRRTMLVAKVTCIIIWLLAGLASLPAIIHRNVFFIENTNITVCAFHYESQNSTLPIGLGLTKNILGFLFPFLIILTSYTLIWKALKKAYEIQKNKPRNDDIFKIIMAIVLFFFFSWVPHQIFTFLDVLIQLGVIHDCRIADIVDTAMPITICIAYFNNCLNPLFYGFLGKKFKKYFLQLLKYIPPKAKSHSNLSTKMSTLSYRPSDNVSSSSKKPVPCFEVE
In words: In vitro antagonist activity against angiotensin II receptor type 1 in rabbit aorta using [125I]-Sar, Ile AII. The class given is functional, tissue-based.

As for `CCc1nc2c(C)cc(C)nc2n1Cc1ccc(N(CC)C(C(=O)O)c2cc(C(F)(F)F)cc(C(F)(F)F)c2)cc1` (stereo not given), the IC50 in assay [1] is 12000 nM; in assay [2] it was 1900 nM. For `C=CCN(c1ccc(Cn2c(CC)nc3c(C)cc(C)nc32)cc1)C(C(=O)NS(=O)(=O)c1ccccc1)c1ccccc1` (stereo not given), the IC50 was 2900 nM in assay [1] and 1 nM in assay [2]. On the same counts, the results for `CCc1nc2c(C)cc(C)nc2n1Cc1ccc(N(CC)C(C(=O)O)c2ccccc2Cl)cc1` (stereo not given) are more than 10000 nM and 380 nM. On the same counts, the results for `CCCN(c1ccc(Cn2c(CC)nc3c(C)cc(C)nc32)cc1)C(C(=O)O)c1ccccc1` (stereo not given) are 560 nM and 5.3 nM. On the same counts, the results for `CCc1nc2c(C)cc(C)nc2n1Cc1ccc(N(C)C(C(=O)O)c2ccccc2)c(C)c1` (stereo not given) are 11000 nM and 70 nM. With `C=CCN(c1ccc(Cn2c(CC)nc3c(C)cc(C)nc32)cc1)C(C(=O)O)c1ccccc1` (stereo not given), the IC50 in assay [1] amounted to 490 nM; in assay [2], 5.3 nM. Take `CCc1nc2c(C)cc(C)nc2n1Cc1ccc(NC(C(=O)O)c2cc(C(F)(F)F)cc(C(F)(F)F)c2)cc1` (stereo not given): the IC50 in assay [1] is 6000 nM; in assay [2], 860 nM. In the same order, the values of `CCc1nc2c(C)cc(C)nc2n1Cc1ccc(N(CC)C(C(=O)O)c2cc(F)ccc2F)cc1` (stereo not given) are more than 10000 nM and 88 nM.

As to `CCc1nc2c(C)cc(C)nc2n1Cc1ccc(N(CC)C(C(=O)O)c2ccccc2)cc1` (stereo not given), the results for the IC50 in assay [1] and in assay [2] were 740 nM and 4 nM, respectively. In the case of `CCc1nc2c(C)cc(C)nc2n1Cc1ccc(NC(C(=O)O)c2ccccc2)c(C)c1` (stereo not given), the IC50 is 11000 nM in assay [1] and 100 nM in assay [2]. In the same order, the values of `CCc1nc2c(C)cc(C)nc2n1Cc1ccc(N(CC)C(C(=O)O)c2cccc(C)c2)cc1` (stereo not given) are 2100 nM and 66 nM. In the same order, the values of `CCc1nc2c(C)cc(C)nc2n1Cc1ccc(N(CC)C(C(=O)NS(=O)(=O)c2ccccc2)c2ccccc2)cc1` (stereo not given) are 200 nM and 0.9 nM. Take `CCc1nc2c(C)cc(C)nc2n1Cc1ccc(N(CC2CC2)C(C(=O)O)c2ccccc2)cc1` (stereo not given): the IC50 was 2200 nM in assay [1] and 31 nM in assay [2]. As for `CCc1nc2c(C)cc(C)nc2n1Cc1ccc(NC(C(=O)O)c2ccccc2C)c(C)c1` (stereo not given), the figures for the IC50 in assay [1] and in assay [2] were 19000 nM and 28 nM, respectively. `C=CCN(c1ccc(Cn2c(CC)nc3c(C)cc(C)nc32)cc1)C(C(=O)O)c1cc(F)ccc1F` (stereo not given): the results for the IC50 in assay [1] and in assay [2] were 8800 nM and 200 nM, respectively. For `CCc1nc2c(C)cc(C)nc2n1Cc1ccc(N(C(C)CC)C(C(=O)O)c2ccccc2)cc1` (stereo not given), the IC50 in assay [1] came out at 1600 nM; in assay [2], 80 nM.

As for `CCCCN(c1ccc(Cn2c(CC)nc3c(C)cc(C)nc32)cc1)C(C(=O)O)c1ccccc1` (stereo not given), the IC50 is 660 nM in assay [1] and 94 nM in assay [2].

For the compound `CCc1nc2c(C)cc(C)nc2n1Cc1ccc(NC(C(=O)O)c2ccccc2)cc1` (stereo not given), the IC50 worked out at 21000 nM in assay [1] and 200 nM in assay [2].

Turning to `C=CCN(c1ccc(Cn2c(CC)nc3c(C)cc(C)nc32)cc1C)C(C(=O)O)c1ccccc1C` (stereo not given), the figures for the IC50 in assay [1] and in assay [2] were 11000 nM and 82 nM, respectively. As to `C=CCN(c1ccc(Cn2c(CC)nc3c(C)cc(C)nc32)cc1C)C(C(=O)O)c1ccccc1` (stereo not given), the IC50 in assay [1] was determined as 4300 nM; in assay [2], 34 nM. For the compound `CCc1nc2c(C)cc(C)nc2n1Cc1ccc(N(C)C(C(=O)O)c2ccccc2)cc1` (stereo not given), the IC50 in assay [1] was found to be 3400 nM; in assay [2] it was 8.2 nM. On the same counts, the results for `CCc1nc2c(C)cc(C)nc2n1Cc1ccc(N(C)C(C(=O)O)c2cc(F)ccc2F)cc1` (stereo not given) are more than 10000 nM and more than 100 nM. The compound `CCc1nc2c(C)cc(C)nc2n1Cc1ccc(-c2ccccc2-c2nnn[nH]2)cc1` [L-158809] registered an IC50 in assay [1] of more than 10000 nM. `CCc1nc2c(C)cc(C)nc2n1Cc1ccc(N(CC)C(C(=O)O)c2ccccc2)c(C)c1` (stereo not given): the IC50 in assay [1] was 8600 nM; in assay [2] it was 10 nM. For the compound `CCc1nc2c(C)cc(C)nc2n1Cc1ccc(N(CC(C)C)C(C(=O)O)c2ccccc2)cc1` (stereo not given), the IC50 was more than 300 nM in assay [1] and 22 nM in assay [2].

Consider `CCCN(c1ccc(Cn2c(CC)nc3c(C)cc(C)nc32)cc1)C(C(=O)NS(=O)(=O)c1ccccc1)c1ccccc1` (stereo not given), for which the IC50 in assay [1] came out at 420 nM; in assay [2], 0.8 nM. On the same counts, the results for `CCCN(c1ccc(Cn2c(CC)nc3c(C)cc(C)nc32)cc1C)C(C(=O)O)c1ccccc1` (stereo not given) are 4800 nM and 12 nM. On the same counts, the results for `CCc1nc2c(C)cc(C)nc2n1Cc1ccc(N(C)C(c2ccccc2)c2nnn[nH]2)cc1` (stereo not given) are more than 30000 nM and 15 nM.
